US8790678B2, “Biomaterials having nanoscale layers and coatings” (Washington University, priority 2006, dated 2014)
Where “and” joins values, the source holds several entries; their conditions need not be identical. Equal entries are not always repeated.

How the values were obtained:
plasma lipoproteins = conditions: in blood; cited from earlier work
HUVEC [1] = assay: Scrape wound migration assay in platelet poor plasma or low serum medium; type: cell-based, human; conditions: for number of cells in the scrape wound versus plasma alone: no flow
Protocol: The plasma was passed through a 0.22 μm PVDF syringe filter. Plasma was aliquoted and stored at −20° C. VEGF concentration was measured with a sandwich ELISA kit (Quantikine Human VEGF kit, R&D Systems, Minneapolis, Minn.). The concentration of VEGF was measured in plasma samples from three different donors.
After rinsing with D-PBS, LSM or plasma containing the appropriate stimulants were added to the cells. […] Cells were manually counted using ImagePro Express software (Media Cybernetics, Silver Spring, Md.).
A 2.54 cm diameter Teflon disk was mounted onto the spindle of each motor so that the bottom of the disk was 0.5 cm above the cell monolayer. A total volume of 6 mL of medium was added per well. The motors were driven using a 1.5 V power source resulting in a rotation rate of 150±5 rad/s. […] Cell densities were counted at four locations, each between 0.8 and 1.2 cm away from the center of the well.

[2] = tested on: chorioallantoic membrane (CAM); assay: Chick chorioallantoic membrane (CAM) angiogenesis assay; type: in vivo, chicken; conditions: 50 ng spotted on Thermanox coverslip, two days
Protocol: Embryonated chicken eggs were incubated blunt-end up in a 37° C. incubator. At embryonal day 6, the top of the egg was cracked and removed using tweezers to create a 1.5 cm diameter opening. The inner shell membrane was removed, exposing the CAM. A 20 μL PEG hydrogel was then placed onto the CAM. As controls, 50 ng bFGF or 50 ng S1P were spotted onto small pieces of Thermanox coverslips (Nunc), air dried and placed onto the CAM. The eggs were sealed with parafilm and returned to the incubator. After two days of incubation, the eggs were reopened and the degree of angiogenesis was visually assessed.

[3] = tested on: Human aortic endothelial cells; assay: Single cell tracking on RGD/PEG-OVS/albumin hydrogels under fluid shear stress; type: cell-based; conditions: for endothelial cell migration speed: 100 nM S1P
Protocol: Human aortic endothelial cells seeded onto RGD/PEG-OVS/albumin hydrogels at 1000-2000 cells/cm^2 were tracked under 20 dynes/cm^2 fluid shear stress in HEPES-buffered low serum medium (HEPES-LSM; MCDB 131 with 0.1% FBS, 1% ABAM, […] HEPES, pH 7.4) containing 0.4% FAF-BSA for 12 h.
Time lapse microscopy images were obtained every 2 min for 12 h of endothelial cell migration on the surface of RGD containing PEG hydrogels. The percent of cells remaining on the gels during the course of the experiment was recorded for each RGD concentration. The projected cell areas of all cells were determined by manually outlining the cells after 3 h under 20 dyne/cm^2 shear stress. Single endothelial cells were manually tracked for 12 h to obtain XY-coordinate data for the center of each cell. Coordinate data from every six minutes (Δt=6 min) for all cells in each experiment were saved as variables for analysis in MATLAB (The MathWorks, Natick, Mass.). At each time point i, ti=iΔt, the mean squared displacement was calculated using the overlapping interval method. The speed of each individual was calculated by dividing the root mean-square displacement for a single time interval by the tracking interval (6 min). Each cell's persistence time was determined by fitting the persistent random walk model given by Equation 1: <d^2(t)>=2S^2P[t−P(1−e^−t/P)] [1] using the calculated speed by nonlinear least squares regression analysis as previously described (Dunn 1983; Othmer, Dunbar and Alt 1988; Harms et al. 2005). Speed simply represents the total path length of a cell over time. Persistence time represents the time period between changes in the direction of movement of more than 60°. Path length is calculated as the product of speed and persistence time. Cell dispersion is the product of speed squared and persistence time. Cell areas were obtained by manually tracing cells. All data was analyzed by ANOVA Scheffe post hoc. Endothelial Response to Linear RGD Concentration—Cell Attachment Strength

HAEC = assay: Individual cell migration of HAEC in plasma; type: cell-based, human
Protocol: Individual Cell Migration of HAEC—Passage 6 HAEC were subcultured and incubated in growth medium for 3 days and then were serum-starved for 12 h. HAEC cell densities were less than 100 cell/mm^2 so that cell-cell contacts were unlikely during the duration of the experiment. Any cell that contacted another cell was excluded from data analysis. Plasma was buffered with 20 mM HEPES, pH 7.4, and added to the well. Time-lapse microscopy was used to track the cells every 4 min for 12 h with a 10× objective. The migration speed of individual cells was analyzed using ImageJ software (NIH).

S1P1 = S1P1 (Homo sapiens, UniProt P21453); conditions: Lee et al., Science (1998); read-out: KD for S1P/S1P1 binding; cited from earlier work
HUVEC [4] = assay: Time-lapse microscopy of endothelial cell migration on PEG-OVS/albumin/RGD hydrogels; type: cell-based, human
Protocol: Time-lapse microscopy was used to quantify endothelial cell migration speeds on PEGOVS/albumin hydrogels containing RGD peptide and preloaded with S1P. RGD peptide was added to the PEG hydrogels to promote endothelial cell adhesion and spreading on the materials. PEG-OVS (3.4 mg in 20 μL) was reacted for 30 min with acetyl-GCGYGRGDSPG-NH2 peptide [SEQ ID NO. 5], to attach the peptide to 1/20 of the vinyl sulfone groups (2.78 mM RGD peptide in the final hydrogel). The PEG hydrogels were crosslinked by reacting PEG-OVS with albumin (5.2 mg in 30 μL) premixed with S1P (5 nmol) to give a final concentration of 100 μM S1P within the crosslinked hydrogel. The resulting solution (50 μL) was pipetted into a 24-well plate and incubated at 37° C. for 24 h to allow crosslinking. HUVEC from passage 5-7 were seeded onto the gels at a concentration of 1000 cells/cm^2. After allowing the cells to spread for 6 h in complete growth medium, HEPES-buffered low serum medium (MCDB 131 with 0.1% FBS, 1% ABAM, […] HEPES, pH 7.4) containing 0.4% FAF-BSA was added to the cells. The cells were tracked using time-lapse microscopy for 12 h, recording images every two minutes. Individual cell migration speeds were analyzed manually using ImageJ to trace the path of each cell over time. […]

S1P1 mRNA = assay: Quantitative real time RT-PCR of S1P1 mRNA; type: cell-based, human; conditions: 10 ng/mL VEGF; HUVEC cultured in plasma; 24 h
From the text: Quantitative Real Time Reverse Transcription PCR-In experiments with fluid flow, cell lysates were harvested only in the region of relevant shear stress (0.8-1.2 cm from the center of the well). For conditions without fluid flow, cell lysates were collected from the entire well. Total cell RNA was isolated using an RNeasy kit (Qiagen). Amplification of an 81-bp fragment of S1P1 using primers (5'-[…] NO:7] and 5'-[…] Inc, Coralville, Iowa) and probe (S1P1 Probe: [NT] ID NO:9], IDT Inc) was performed using the Quantitect qRT-PCR kit (Qiagen). The amount of S1P1 or β-Actin RNA was quantified by comparing data to a standard curve generated using the Taqman human endogenous β-actin control kit (Applied Biosystems). The β-actin control kit contains 333 copies of β-actin DNA per ng of total RNA. Knockdown of S1P1 with siRNA-Passage 3 HUVEC at 30-50% confluence were transfected with 100 nM siRNA targeting S1P1 (Silencer validated siRNA against S1P1, Ambion, Austin, Tex.) in antibiotic-free growth medium using Lipofectamine-2000 (Invitrogen). […] At 48 h, cells were incubated with LSM for 12 h. A negative control (Ambion, Silencer Negative Control #2) was used to test for non-specific effects on gene expression or cell survival. Quantitative real-time RT-PCR was used to determine the extent of S1P1 receptor mRNA knockdown 48 h after transfection.

[5] = S1P 100 nM or VEGF 10 ng/mL added to plasma
[6] = S1P at 0.69 mM cyclic RGD vs 0.52 and 1.38 mM cyclic RGD without S1P
[7] = addition of 100 nM S1P, linear RGD

S1P1, sequence (P21453 whole entry, species assumed): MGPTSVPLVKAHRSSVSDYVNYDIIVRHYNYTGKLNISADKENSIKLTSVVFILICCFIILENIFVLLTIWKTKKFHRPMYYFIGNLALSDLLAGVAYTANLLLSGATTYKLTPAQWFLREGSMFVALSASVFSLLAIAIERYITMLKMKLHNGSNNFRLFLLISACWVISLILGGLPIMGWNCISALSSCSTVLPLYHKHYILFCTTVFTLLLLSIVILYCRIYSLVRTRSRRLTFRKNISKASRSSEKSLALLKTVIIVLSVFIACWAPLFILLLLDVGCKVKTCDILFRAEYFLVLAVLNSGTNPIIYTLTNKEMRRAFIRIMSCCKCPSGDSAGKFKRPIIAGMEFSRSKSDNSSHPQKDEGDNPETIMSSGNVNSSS

For `CCCCCCCCCCCCC/C=C/[C@@H](O)[C@@H](N)COP(=O)(O)O` [S1P, Sphingosine 1-phosphate], the “circulating S1P bound by HDL” value (plasma lipoproteins) is listed as “about 55%”, the “circulating S1P bound by other lipoproteins” value (plasma lipoproteins) is listed as “about 10%” and the “cell densities outside the scrape wound area between S1P levels” value (HUVEC [1]; 0, 200, 500, and 1000 nM exogenous S1P at each time point) is listed as “no significant differences”. For the same molecule, the “number of endothelial cells in a scrape wound versus LSM alone” value (HUVEC [1]; 100 nM S1P in LSM, 24 h) was “increased the number of endothelial cells”, the “number of cells in the scrape wound” value (HUVEC [1]; 100 nM S1P in plasma, fluid flow) was “did not significantly increase” and the “number of cells in the scrape wound versus plasma alone” value (HUVEC [1]; 200 nM and 500 nM exogenous S1P, plasma, 24 h) was “statistically different from plasma alone”. The “migration into the wound area versus plasma alone” value (HUVEC [1]; 200 nM exogenous S1P, fluid flow, 48 h) was “significantly different from plasma alone”, the “number of cells in the scrape wound versus plasma alone” value (HUVEC [1]; 200 nM exogenous S1P, plasma, 48 h) was “significantly higher than plasma alone” and the “cell density outside the scrape wound at 48 h versus 0 and 24 h” value (HUVEC [1]; 1000 nM exogenous S1P in static culture) was “significantly lower cell density”. For the same molecule, the “number of cells in the wound area versus plasma alone” value (HUVEC [1]; 200, 500, or 1000 nM S1P in plasma, fluid flow, 24 h) was “significant increases”, the “number of cells in the scrape wound versus plasma alone” value (HUVEC [1]; [5]) was “no differences” and the “exogenous S1P concentration with the highest number of cells within the scrape wound” value (HUVEC [1]; plasma, without fluid flow, 100, 200, 500, 1000 nM tested) was 200 nM. The angiogenic response [2] was “strong angiogenic responses”, the persistence time ([3]; 100 nM S1P compared to no S1P, cyclic RGD) was “not significantly changed” and the “endothelial cell migration speed” value ([3]; cyclic RGD hydrogels, particularly higher concentrations) was “significant increase in endothelial cell migration speed”. The “endothelial cell migration speed” value ([3]; highest linear RGD concentrations) was “more than doubled”, the projected cell area ([3]; S1P addition, cyclic RGD, after 3 h of shear stress) was “No clear effect” and the cell dispersion [3, 6] was “statistically greater”. The path length [3, 6] was “statistically greater”, the cell dispersion [3, 7] was “not significant” and the path length [3, 7] was “not significant”. For the same molecule, the persistence time [3, 7] was “not clearly affected”, the “mean cell speed versus plasma alone” value (HAEC; 100 nM S1P added to static plasma) was “no difference” and the “mean cell speed versus plasma alone” value (HAEC; 500 and 1000 nM exogenous S1P) was “did not lead to a significant increase”. For the same molecule, the “mean cell speed versus plasma alone” value (HAEC; S1P in plasma increased by 200 nM, p=0.023) was “significantly increased”, the Kd (S1P1) was ~8 nM and 8 nM and the “mean migration speed of HUVEC” value (HUVEC [4]; S1P delivered from preloaded PEG/albumin/RGD hydrogel (100 μM S1P in gel), without S1P 19.2±10.1) was 43.8±15.7 μm/h. For the same molecule, the “mean migration speed of HUVEC” value (HUVEC [4]; culture medium containing 100 nM S1P, on PEG/albumin/RGD hydrogel) was 30.2±11.8 μm/h.
With VEGF the “number of cells in the scrape wound versus plasma alone” value (HUVEC [1]; [5]) was “no differences” and the “S1P1 mRNA concentration versus plasma alone” value (S1P1 mRNA) was “statistically significant increase”.
